We go through 1 substance from patent publication US20110123483A1, “HMGB1 FOR CANCER TREATMENT” (DEUTSCHES KREBSFORSCHUNGSZENTRUM, priority 2009, published 2011).

Data set [1] concerns pseudo rho zero cells. The data set is described as follows: Survival of pseudo rho zero cells by crystal violet analysis. The settings on record: cells devoid of intact mitochondrial DNA. It counts as cell-based, human. On the procedure: (§1) U251 glioblastoma cells and non-immortalized human astrocytic cells (ScienCell, USA) were maintained in DMEM (Life Technologies) containing 10% FCS, 4.5 g/L glucose, glutamine, 110 mg/L sodium pyruvate, and 1% penicillin-streptomycin (Life Technologies) and in astrocyte medium (ScienCell) containing 2% FBS (fetal bovine serum) and 1% penicillin-streptomycin at 37° C. and 5% CO2. For the generation of pseudo rho zero cells (0.0), U251 MG cells were treated with low dose (250 ng/ml) ethidiumbromide for 3 months. The cells were supplemented with DMEM (10% FCS, 1% P/S) containing 50 μg/ml L-pyruvate and 5 mg/ml uridine (King and Attardi, 1989).
(§2) 20,000 U251MG glioblastoma cells or human astrocytic cells (ScienCell) were plated into 96-well plates. After 24 h cells were treated with rhHMGB1 (Sigma Aldrich) or rat recombinant HMGB1 (generously provided by Angelika Bierhaus, Heidelberg, Germany), and TRAIL (for 24 h) or Temozolomide (for 72 h) alone or in combination, respectively. Cell survival was measured by crystal violet staining as described previously (Gdynia et al., 2007). Cell proliferation was assessed by seeding 50,000 U251 MG cells in 6 cm culture plates and treatment with rhHMGB1, followed by counting the cells in a Neubauer chamber at day 0, 2, 4 and 5.

Data set [2] deals with non-immortalized human astrocytic cells. The data set can be described thus: Cytotoxicity assay, cell survival by crystal violet staining. It counts as cell-based. The settings on record: 72 h (FIG. 1B). On the procedure:
as §1, §2

Data set [3] relates to NCH421 K glioblastoma stem-cell-like cells. The data set is described as follows: Trypan blue vital stain, counting blue cells in a Neubauer chamber. The class given is cell-based. The settings on record: 80 nM, 24 h, p<0.05. As for the experimental part:
Trypan blue influx into NCH421 K glioblastoma multiforme stem-cell-like cells was […] culture flasks and then incubating them for 10 min with 1:1,000 trypan blue solution. […] Glioblastoma stem-cell-like cell line NCH421K was maintained in BIT (bovine serum albumine, insulin, transferring)-medium (DMEM HAMS F12+1% P/S+1% L-glutamin+10 ml BIT+EGF (20 ng/ml)+BFGF (20 ng/ml)).

Data set [4] has as its system U251 MG cells. The data set can be described thus: Western blot of phospho-H2A.X and BNIP3. The class given is cell-based, human. The settings on record: 24 h (FIG. 7). On the procedure: (§3) The U251 MG tumor cells were lysed in lysis buffer containing 20 mmol/L Tris-HCl (pH 7.4), 137 mmol/L NaCl, 10% (v/v) glycerine, 1% Triton X-100, 2 mmol/L EDTA, 100 mmol/L phenylmethylsulfonyl fluoride, and protease inhibitors (Complete mini; Roche Molecular Biochemicals). For the detection of phosphoprotein levels, 10 mmol/L NaPPi, 50 mmol/L NaF, and 20 mmol/L NaVO4 were added to the lysis buffer. After 15 min incubation on ice, the lysates were centrifuged at 14,000×g for 10 min. The total protein concentration of the lysates was measured using the Bradford assay (Bio-Rad). Soluble protein (25-100 μg per lane) was separated on 10% to 15% polyacrylamide gels and blotted onto nitrocellulose by standard procedures. […]
Background: A western blot detects proteins with antibodies after separation by electrophoresis.

The subject of data set [5] is U251 MG cells. The data set is described as follows: Subcellular fractionation and Western blot: cytochrome c release, caspase 3 cleavage. The class given is cell-based, human. To be noted: rhHMGB1 80 nM, 24 h (FIG. 6). As for the experimental part:
The U251 MG tumor cells were lysed in lysis buffer containing 20 mmol/L Tris-HCl (pH 7.4), 137 mmol/L NaCl, 10% (v/v) glycerine, 1% Triton X-100, 2 mmol/L EDTA, 100 mmol/L phenylmethylsulfonyl fluoride, and protease inhibitors (Complete mini; Roche Molecular Biochemicals). For the detection of phosphoprotein levels, 10 mmol/L NaPPi, 50 mmol/L NaF, and 20 mmol/L NaVO4 were added to the lysis buffer. After 15 min incubation on ice, the lysates were centrifuged at 14,000×g for 10 min. The total protein concentration of the lysates was measured using the Bradford assay (Bio-Rad). Soluble protein (25-100 μg per lane) was separated on 10% to 15% polyacrylamide gels and blotted onto nitrocellulose by standard procedures. The membranes were washed, incubated with primary antibody as indicated: mouse anti-human caspase-3 (1:500, Imgenex, San Diego, Calif.); polyclonal rabbit anti-human phosphorylated p44/42 mitogen-activated protein kinase and polyclonal rabbit anti-human phosphorylated stress-activated protein kinase/JNK (1:1,000, Cell Signaling Technology, Inc.); polyclonal anti-rabbit JNK 54/46 (1:1,000, Cell Signaling Technology, Inc.); polyclonal rabbit anti-human IkBalpha (1:500, Santa Cruz Biotechnology, Inc.); mouse monoclonal anti-human BNIP3 (1:10,000, R&D Systems, Inc.); mouse monoclonal anti-human phosphorylated-histone H2A.X (Upstate, Inc.); mouse monoclonal anti-human cytochrome c (1:100, BD Biosciences Pharmingen GmbH, Heidelberg, Germany); mouse anti-human cytochrome c oxidase complex IV (1:100, Molecular Probes, Invitrogen, Karlsruhe, Germany); polyclonal rabbit antimalondialdehyde (1:250, Calbiochem, Merck, Darmstadt, Germany) and mouse monoclonal antibodies to β-tubulin or β-actin (1:3,000, Sigma Chemical Co., St. Louis, Mo.), washed, and incubated with the appropriate secondary antibody (1:3,000; horseradish peroxidase-conjugated, Bio-Rad). Bound antibodies were visualized using an enhanced chemiluminescence detection system (GE-Healthcare, Uppsala, Sweden).
Enrichment of mitochondrial fractions was performed using the ApoAlert Cell Fractionation Kit (Clontech, Mountain View, Calif.) as described previously (Gdynia et al., 2008). Briefly, after centrifugation and several washing steps, the cell pellet was resuspended in ice-cold 1× Fractionation Buffer Mix containing protease inhibitors (Complete mini; Roche Molecular Biochemicals, Indianapolis, Ind.) and 1 mM 1,4-Dithio-DL-threitol solution (DTT). After 10 min incubation on ice, cells were homogenized with a dounce tissue grinder. Efficiency of homogenization was controlled by microscopy. The homogenate was centrifuged at 700×g for 10 min at 4° C. and the resulting supernatant at 10,000×g for 25 min at 4° C. […]

In data set [6] the test system is U251MG xenograft tumors. The data set is described as follows: Subcutaneous U251MG xenograft tumors in CD1 nude mice, systemic treatment. The class given is in vivo. As for the experimental part:
All animal work was carried out in accordance with the NIH guidelines Guide for the Care and Use of Laboratory Animals. Six-week-old male athymic CD1 nude mice (Charles River, n=8) were injected subcutaneously with 7.5×10^6 U251MG cells in 100 μl PBS in the right flank using a 30-gauge needle. After 3 weeks, treatment of the xenograft tumors was initiated with 10 μg rhHMGB1 in 500 μl PBS or PBS only (control group) by daily intraperitoneal injections at the contralateral side for 6 weeks. Tumor volume was measured by a calliper using the ellipsoid formula (length×width×height×½) as described (Tomayko and Reynolds, 1989). After 6 weeks of treatment the animals were sacrificed and the paraffin embedded tumor sections were subjected to immunofluorescence analysis as outlined below.
Paraffin embedded slices of mouse tissue or xenograft tumors were dewaxed and dehydrated using xylene and ethanol, followed by heat-induced antigen retrieval using 10 mM citrate buffer, pH 6.0, for 3×5 min in a cooker. The sections were incubated with 1:10 COX IV (Alexa Fluor® 488 conjugate) antibody over night at 4° C., washed with PBS and covered with Vectashield® mounting medium (H-1200, Vector Laboratories Inc., 94010 CA, USA) containing DAPI (1.5 μg/ml).

For data set [7], the system named is NCH421 K cells. The data set can be described thus: Propidiumiodide (PI) uptake by FACS analysis. The class given is cell-based. To be noted: 80 nM or 600 nM (FIG. 12C).
The test system of data set [8] is JNK1/2. The data set can be described thus: Western blot analysis of JNK1/2 phosphorylation. It counts as cell-based, human. To be noted: 24 h (FIG. 3C). On the procedure:
as §3

Entries after “also recorded” stand apart in the source; their conditions may differ.

With “rhHMGB1: recombinant human High Mobility Group B1 protein (Sigma Aldrich)”, the “rhHMGB1-induced cell death in pseudo rho zero cells” value in data set [1] is on record as “almost completely resistant; also recorded: highly protected”. Moreover, in data set [2], the “susceptibility to rhHMGB1-induced cell death” value was “not human non-immortalized astrocytes were susceptible”. Also, the “trypan blue influx versus control” value in data set [3] was 7±1 fold increase. Moreover, in data set [4], the BNIP3 expression result is on record as “not up-regulated” and the H2A.X phosphorylation entry is recorded as “not observed”. Further, in data set [5], the “activation of caspase 3” value is on record as “neither activation of caspase 3” and the “release of cytochrome c” value was “nor release of cytochrome c was observed”. For the same substance, the “tumor size versus control group” value in data set [6] (10 μg daily intraperitoneal, after six weeks (FIG. 1D)) is “significantly smaller tumors than the control group”. The “formation of megamitochondria in xenograft tumor tissue” value in data set [6] (after a 6 week systemic treatment (FIG. 9)) was “formation of megamitochondria was also observed”. For the same substance, in data set [7], the “Propidiumiodide (PI) uptake compared to untreated control” value is “evidently increased”. Moreover, the “phosphorylation of c-Jun N-terminal kinase 1/2 (JNK)” value in data set [8] is “continuous and dose dependent phosphorylation”.
